From patent publication US20230089368A1, “POLYAROMATIC UREA DERIVATIVES AND THEIR USE IN THE TREATMENT OF MUSCLE DISEASES” (ANAGENESIS BIOTECHNOLOGIES S.A.S., priority 2019, published 2023)

How the values were obtained:
[1] = tested on: satellite-like cells (Pax7-positive cells) in hMP; assay: Myotube assay: Pax7-positive (satellite-like) cell quantification; assay type: cell-based, human; parameters: key to Pax7% (pool of Pax7-positive cells) / Pax7: −: Depletes the pool of cells, while positively affects the myotubes; +: Maintains or increases the pool of cells, with at least 1 of the highest concentration known to be cytotoxic; ++: Maintains or increases the pool of cells, without any toxicity; settings: myotube assay, compounds incubated 3 days
Description: (§1) The efficacy of said compound for use in treating, ameliorating, delaying, curing and/or preventing a disease or condition associated with muscle cells and/or satellite cells is positively correlated with the generation of myotubes (i.e. the increase of the area occupied by myotubes on the assay) and/or satellite cells (i.e. the increase of the number of satellite cells) in the assay after adding said compound. The generation of myotubes by the addition of said compound is expressed as the EC50 value, the concentration of said compound that corresponds with the half-maximal generation of myotubes, and the MA (normalized myotube area) value, the normalized area occupied by generated myotubes on the assay. […] Since muscle cells are formed from myotubes during myogenesis, the generation of myotubes in the assay is a good indicator of the ability of said compound to induce the formation of functional muscle cells in vivo. The number of satellite cells is measured as the percentage of Pax7 positive cells, relative to the total number of cells in the assay, as shown in FIG. 3. The percentage of Pax7 is a good indicator of the ability of said compound to induce the formation of satellite cells which are able to play a role in muscle repair and regeneration in vivo.
(§2) DMD human induced pluripotent stem cells (hereafter “DMD hiPSC”), generated from the NORM-1 hiPSC WT cell line by gene editing, or WT human induced pluripotent stem cells (hereafter “WT hiPSC”), being NORM-1 hiPSC wt cell line, have been differentiated according to Chal et al. 2015, 2016, to produce muscle progenitors (hereafter “hMP”). The hMP population contains satellite-like cells (i.e Pax7-positive cells) and satellite cells' progenies (i.e. Myogenin-positive cells).
(§3) FIG. 1 provides an example of a Myotube assay workflow. At day 0, hMP are thawed and 3.1 million cells are plated into a T75-flask coated with hESC-qualified Matrigel™ (Corning) in SkGM proliferating medium (PromoCells), supplemented with 5 μM Y-27632 (Tocris Bioscience). On day 2, SkGM proliferating medium is refreshed. On day 4, hMP are harvested and transferred into a 384-well plate coated with collagen type I at a density of 3500 cells/well in a DMEM-based medium, containing 5% of knockout serum replacement (Gibco), 1% PenStrep (Gibco), 1% MEM NEAA (Gibco) and 0.1 mM 2-mercaptoethanol (Gibco) (hereafter “K5 medium”) and 5 μM Y-27632. Compounds to be tested are then added in the medium and incubated for 3 days at 37° C. On day 7, cells are fixed and immunostained. For example, myotubes (alpha-actinin staining) and satellite-like (Pax7 staining) cells can be analyzed for total myotube area per well or Pax7-positive cell quantification.
(§4) DMD hMP were put in the Myotube assay according to the workflow described in Example 2.1. In particular, compound (i) was added at concentrations ranging from 1.5 nM to 30 μM, starting from day 4. hMP were cultivated for three more days in presence of compound (i), then fixed and analyzed for percentage of Pax7-positive cells and nuclei number. Duplicates of each condition were averaged.
(−): Depletes the pool of cells, while positively affects the myotubes; (+): Maintains or increases the pool of cells, with at least 1 of the highest concentration known to be cytotoxic; and (++) Maintains or increases the pool of cells, without any toxicity.

[2] = tested on: muscle progenitors (hMP) from DMD hiPSC or WT hiPSC; assay: Myotube assay: myogenic activity (total myotube area per well); assay type: cell-based, human; settings: Homo sapiens, 72 h, myotube assay, compounds incubated 3 days; for Emax: read-out: MA (normalized Myotube Area, efficacy)
Procedure: An in vitro assay for assessing the efficacy of compounds for use in treating, ameliorating, delaying, curing and/or preventing a disease or condition associated with muscle cells and/or satellite cells is described in example 78. Herein, the generation of myotubes and satellite cells after adding a compound to a myotube assay workflow is assessed. Said myotube assay workflow is derived from wild-type or DMD human induced pluripotent stem cells (WT hiPSC or DMD hiPSC). Before the addition of said compound, the assay comprises satellite-like cells, but no significant amount of myotubes.
as §1, §2, §3
as §4, with “quantification” for “percentage”, “total myotube area per well.” for “Pax7-positive cells and nuclei number.”
Qualitative scale: ++++: EC50<500 nM; +++: 500 nM≤EC50<1000 nM; ++: 1000 nM≤EC50<5000 nM; +: EC50≥5000 nM; +++: MA≥75%; ++: 50%≤MA<75%; +: 25%≤MA<50%.

| EC50 ([2]; 10 points dose-response 1.5 nM to 30 μM, read-out: EC50 (myogenic activity, half-maximal generation of myotubes)) | Compound | Pax7% (pool of Pax7-positive cells) [1] | Emax [2] |
| --- | --- | --- | --- |
|  | CC1(c2cc(NC(=O)Nc3ccc(Oc4ccnc5[nH]c(=O)cnc45)cc3F)n(-c3ccccc3)n2)COC1 [(f), 1-(2-fluoro-4-((3-oxo-3,4-dihydropyrido[2,3-b]pyrazin-8-yl)oxy)phenyl)-3-(3-(3-methyloxetan-3-yl)-1-phenyl-1H-pyrazol-5-yl)urea] | ++ | 50 to 75% |
|  | CSc1cc(Oc2ccnc3[nH]c(=O)cnc23)ccc1NC(=O)Nc1cc(C(C)(C)C)nn1-c1ccc(CN(C)C)cc1 [(dp), 1-(3-(tert-butyl)-1-(4-((dimethylamino)methyl)phenyl)-1H-pyrazol-5-yl)-3-(2-(methylthio)-4-((3-oxo-3,4-dihydropyrido[2,3-b]pyrazin-8-yl)oxy)phenyl)urea] | + | ≥ 75% |
|  | CSc1cc(Oc2ccnc3[nH]c(=O)cnc23)ccc1NC(=O)Nc1cc(C(C)(C)C)nn1-c1cccc(F)c1 [(bw), 1-(3-(tert-butyl)-1-(3-fluorophenyl)-1H-pyrazol-5-yl)-3-(2-(methylthio)-4-((3-oxo-3,4-dihydropyrido[2,3-b]pyrazin-8-yl)oxy)phenyl)urea] | ++ | ≥ 75% |
|  | CSc1cc(Oc2ccnc3[nH]c(=O)cnc23)ccc1NC(=O)Nc1cc(C(C)(C)C)nn1C1CCCCC1 [(bn), 1-(3-(tert-butyl)-1-cyclohexyl-1H-pyrazol-5-yl)-3-(2-(methylthio)-4-((3-oxo-3,4-dihydropyrido[2,3-b]pyrazin-8-yl)oxy)phenyl)urea] | ++ | 50 to 75% |
| ≥ 5 µM | CSc1cc(Oc2ccnc3[nH]c(=O)cnc23)ccc1NC(=O)Nc1cc(C(C)(C)C)nn1CCN(C)C [(bg), 1-(3-(tert-butyl)-1-(2-(dimethylamino)ethyl)-1H-pyrazol-5-yl)-3-(2-(methylthio)-4-((3-oxo-3,4-dihydropyrido[2,3-b]pyrazin-8-yl)oxy)phenyl)urea] | ++ | ≥ 75% |
|  | CSc1cc(Oc2ccnc3[nH]c(=O)cnc23)ccc1NC(=O)Nc1cc(C(C)(C)C)nn1-c1cccc(Cl)c1 [(as), 1-(3-(tert-butyl)-1-(3-chlorophenyl)-1H-pyrazol-5-yl)-3-(2-(methylthio)-4-((3-oxo-3,4-dihydropyrido[2,3-b]pyrazin-8-yl)oxy)phenyl)urea] | + | ≥ 75% |
|  | CNC(=O)c1cncc(Oc2ccc(NC(=O)Nc3cc(C(C)(C)C)nn3-c3ccccc3)c(SC)c2)c1 [(ai), 5-(4-(3-(3-(tert-butyl)-1-phenyl-1H-pyrazol-5-yl)ureido)-3-(methylthio)phenoxy)-N-methylnicotinamide] | ++ | 50 to 75% |
|  | CSc1cc(Oc2ccnc3c2CCC(=O)N3)ccc1NC(=O)Nc1cc(C(C)(C)C)nn1-c1ccc(C)cc1 [(by), 1-(3-(tert-butyl)-1-(p-tolyl)-1H-pyrazol-5-yl)-3-(2-(methylthio)-4-((7-oxo-5,6,7,8-tetrahydro-1,8-naphthyridin-4-yl)oxy)phenyl)urea] | + | ≥ 75% |
|  | COc1cccc(-n2nc(C(C)(C)C)cc2NC(=O)Nc2ccc(Oc3ccnc4[nH]c(=O)cnc34)cc2SC)c1 [(aw), 1-(3-(tert-butyl)-1-(3-methoxyphenyl)-1H-pyrazol-5-yl)-3-(2-(methylthio)-4-((3-oxo-3,4-dihydropyrido[2,3-b]pyrazin-8-yl)oxy)phenyl)urea] | + | ≥ 75% |
|  | CSc1cc(Oc2cccc3[nH]c(=O)cnc23)ccc1NC(=O)Nc1cc(C(C)(C)C)nn1-c1ccccc1 [(bu), 1-(3-(tert-butyl)-1-phenyl-1H-pyrazol-5-yl)-3-(2-(methylthio)-4-((2-oxo-1,2-dihydroquinoxalin-5-yl)oxy)phenyl)urea] | ++ | 25 to 50% |
|  | CSc1cc(Oc2ccnc3[nH]c(=O)cnc23)ccc1NC(=O)Nc1cc(C(C)(C)C)nn1-c1ccc(OCCN2CCOCC2)cc1 [(cf), 1-(3-(tert-butyl)-1-(4-(2-morpholinoethoxy)phenyl)-1H-pyrazol-5-yl)-3-(2-(methylthio)-4-((3-oxo-3,4-dihydropyrido[2,3-b]pyrazin-8-yl)oxy)phenyl)urea] | − | ≥ 75% |
|  | CC(C)(C)c1cc(NC(=O)Nc2ccc(Oc3ccnc4c3CCC(=O)N4)c3ccccc23)on1 [(dg), 1-(3-(tert-butyl)isoxazol-5-yl)-3-(4-((7-oxo-5,6,7,8-tetrahydro-1,8-naphthyridin-4-yl)oxy)naphthalen-1-yl)urea] | + | ≥ 75% |
|  | CC(C)(C)c1cc(NC(=O)Nc2ccc(Oc3ccnc4[nH]c(=O)cnc34)cc2F)n(-c2ccc3ncccc3c2)n1 [(n), 1-(3-(tert-butyl)-1-(quinolin-6-yl)-1H-pyrazol-5-yl)-3-(2-fluoro-4-((3-oxo-3,4-dihydropyrido[2,3-b]pyrazin-8-yl)oxy)phenyl)urea] | + | ≥ 75% |
|  | CC(C)c1cc(NC(=O)Nc2ccc(Oc3ccnc4[nH]c(=O)cnc34)cc2F)n(-c2ccccc2)n1 [(b), 1-(2-fluoro-4-((3-oxo-3,4-dihydropyrido[2,3-b]pyrazin-8-yl)oxy)phenyl)-3-(3-isopropyl-1-phenyl-1H-pyrazol-5-yl)urea] | ++ | 25 to 50% |
|  | CC(C)(C)c1cc(NC(=O)Nc2ccc(Oc3ccnc4[nH]c(=O)cnc34)cc2F)n(-c2ncccn2)n1 [(m), 1-(3-(tert-butyl)-1-(pyrimidin-2-yl)-1H-pyrazol-5-yl)-3-(2-fluoro-4-((3-oxo-3,4-dihydropyrido[2,3-b]pyrazin-8-yl)oxy)phenyl)urea] | ++ | 50 to 75% |
|  | Cc1cc(NC(=O)Nc2ccc(Oc3ccnc4[nH]c(=O)cnc34)cc2F)n(-c2ccccc2)n1 [(a), 1-(2-fluoro-4-((3-oxo-3,4-dihydropyrido[2,3-b]pyrazin-8-yl)oxy)phenyl)-3-(3-methyl-1-phenyl-1H-pyrazol-5-yl)urea] | ++ | 25 to 50% |
|  | CC(C)(C)c1cc(NC(=O)Nc2ccc(C(=O)c3ccncc3)cc2)n(-c2ccccc2)n1 [(cs), 1-(3-(tert-butyl)-1-phenyl-1H-pyrazol-5-yl)-3-(4-isonicotinoylphenyl)urea] | + | 25 to 50% |
|  | CSc1cc(Oc2ccnc3[nH]c(=O)cnc23)ccc1NC(=O)Nc1cc(C(C)(C)C)on1 [(dh), 1-(5-(tert-butyl)isoxazol-3-yl)-3-(2-(methylthio)-4-((3-oxo-3,4-dihydropyrido[2,3-b]pyrazin-8-yl)oxy)phenyl)urea] | + | ≥ 75% |
